Consider 3 molecules from patent US20210002231A1 (Centre National de la Recherche Scientifique, priority 2018, published 2021).

Read-outs that look alike come from different tables or passages of the source. Residues, ends and D or L forms follow the SMILES beside them.

For orientation: Ki means a dissociation constant, usually derived from enzyme kinetics or from competition with a known ligand. One may read the EC50 as the concentration at which the effect is half-maximal. As usually defined, the Emax is the greatest response seen or fitted, relative to the assay's reference.

In data set [1] the target is T1, human KOPr (Homo sapiens, UniProt P41145).
T1 construct: expressed in transfected cells; HEK293-Glo20F cells (cAMP)
Put plainly: biochemical. The data set is classed as binding. The note with it: [3H]-diprenorphine.

Data set [2] has as its target T1, human KOPr. Description: Glo-sensor cAMP assay. It counts as cell-based. On the procedure: (§1) Stimulation by endogenous RF-amide peptides or test compounds for [^35S]-GTPγS binding to membranes from CHO cells expressing human NPFF1R or NPFF2R, were examined as reported. 1.6. Glo-Sensor cAMP Assay cAMP accumulation assay was essentially done as described with the following modifications: HEK293 cells stably expressing cAMP Glosensor-20F were used, with or without additional stable expression of each individual opioid receptor or NPFF1R. The cAMP responses were measured in presence of D-luciferin (1 mM).
In general terms: cAMP levels reflect the balance of adenylyl cyclase and phosphodiesterase activity.

The target in another data set is T2, human NOPr (Homo sapiens, UniProt P41146).
T2 construct: expressed in transfected cells
Put plainly: Glo-sensor cAMP assay. The data set is classed as cell-based. On the procedure:
as §1

The next data set has as its target T3, GPR10 (Homo sapiens, UniProt P49683).
T3 construct: expressed in transfected cells; host or cells: CHO cells (gift from M. Parmentier, IRIBHM, Brussels), membranes
T3 sequence (P49683 1-370): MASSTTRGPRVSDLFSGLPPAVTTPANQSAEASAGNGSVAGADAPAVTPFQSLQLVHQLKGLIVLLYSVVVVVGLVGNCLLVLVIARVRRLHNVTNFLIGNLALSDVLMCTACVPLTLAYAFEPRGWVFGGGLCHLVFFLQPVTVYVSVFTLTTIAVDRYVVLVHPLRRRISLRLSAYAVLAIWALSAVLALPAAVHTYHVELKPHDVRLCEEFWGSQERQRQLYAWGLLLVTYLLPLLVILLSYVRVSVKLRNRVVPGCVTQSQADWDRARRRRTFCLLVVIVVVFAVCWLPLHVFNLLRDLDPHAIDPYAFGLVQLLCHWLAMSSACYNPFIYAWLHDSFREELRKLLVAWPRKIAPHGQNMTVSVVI
Description: Radioligand competition binding with [3H]-PrRP-20. In general terms: Displacement assays read how much labelled ligand stays bound in the presence of the test substance.

The next data set has as its target T4, GPR103 (Homo sapiens, UniProt Q96P65).
T4 construct: expressed in transfected cells; host or cells: CHO cells (gift from M. Parmentier, IRIBHM, Brussels), membranes
T4 sequence (Q96P65 1-431): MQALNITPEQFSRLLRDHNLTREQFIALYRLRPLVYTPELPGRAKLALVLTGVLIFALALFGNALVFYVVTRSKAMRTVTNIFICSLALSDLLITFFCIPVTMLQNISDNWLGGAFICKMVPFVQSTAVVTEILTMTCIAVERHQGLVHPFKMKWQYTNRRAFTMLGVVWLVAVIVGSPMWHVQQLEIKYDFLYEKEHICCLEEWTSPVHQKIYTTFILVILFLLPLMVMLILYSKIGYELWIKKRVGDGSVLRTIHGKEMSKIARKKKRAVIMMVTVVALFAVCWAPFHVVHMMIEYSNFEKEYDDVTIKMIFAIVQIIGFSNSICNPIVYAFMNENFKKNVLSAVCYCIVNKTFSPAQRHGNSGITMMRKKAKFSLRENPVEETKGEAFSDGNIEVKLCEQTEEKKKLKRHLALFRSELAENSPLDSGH
Description: Radioligand competition binding with [125I]-43RFa.

For data set [3], the system named is C57BL/6N mice. Description: Tail immersion test after acute sc. administration. The data set is classed as in vivo. On the procedure:
(§2) Animal experiments were performed on adult male C57BL/6N male mice (25-30 g weight; Janvier labs, France). Animals were housed in groups of three to five per cage and kept under a 12 h/12 h light/dark cycle at 21±1° C. with ad libitum access to food and water. Experiments were performed during the light-on phase of the cycle. Mice were habituated to the testing room and equipment before starting behavioral experiments. Control and treated group assignment as well as pain response measurements were performed in a blinded manner. Every animal was used only once. 1.11. Drug administration All drugs were dissolved in physiological saline (0.9%) and administered subcutaneously (sc.) at 10 mL/kg (volume/body weight). […] Assessment of thermal nociception The nociceptive sensitivity to thermal stimulation was determined in mice using the warm-water tail immersion tests as previously described [12; 49]. In the tail immersion test, C57BN/6N mice were restrained in a grid pocket and their tail was immersed in a thermostated water bath. […] For analgesic tolerance evaluation, nociceptive latencies were measured on day 1 and 8 according to the acute effect protocol. For the assessment of hyperalgesia, basal nociceptive latencies were measured every day, 30 min before drug or saline injection. Responses are expressed as latency times (in sec) of tail withdrawal from the hot water.

Data set [4] has as its system C57BL/6N mice. Put plainly: Hyperalgesia and analgesic tolerance upon chronic sc. treatment, tail immersion test. The data set is classed as in vivo. The settings on record: for antinociceptive effect on day 1: equianalgesic sc. doses, 25 s cut-off; for basal thermal nociceptive threshold (development of hyperalgesia): chronic daily sc., compared with saline. On the procedure: as §2, with “bath. The latency (in sec) for tail withdrawal from hot water (47.5±0.5° C.) was taken as a measure of the nociceptive response. In the absence of any nociceptive reaction, a cut-off value of 25 sec was set to avoid tissue damage. Experiments for chronic drug effects were designed according to a protocol enabling the evaluation of time-course of opioid-induced hyperalgesia and development of analgesic tolerance using the tail immersion test.” for “bath.”

Data set [5] relates to C57BL/6N mice. Description: Naltrexone-precipitated withdrawal syndrome. It counts as in vivo. The settings on record: twice daily sc. for 7 days, KGFF09 7.4 μmol/kg; in comparison to the other compounds. On the procedure:
On day 7, two hours after the last drug injection, the withdrawal syndrome was precipitated by administration of naltrexone (5 mg/kg, sc.) and evaluated over 30 min. Jumping, paw tremors and wet dog shakes were recorded as number of events occurring during the total test time. Diarrhea was checked for 30 min with one point given for any signs of it during each 5 min period (maximum score: 6). Body weight was measured immediately before and after each 30 min test session, and percentage of body weight lost during the test was calculated. For each mouse, a global opiate withdrawal score was also calculated by summing the values obtained for each sign. For this purpose one point was assigned to every 3 jumps and 5 paw tremors, respectively, whereas all other signs were given the absolute values recorded during the test.

Another data set concerns the target human NPFF1R (Homo sapiens, UniProt Q9GZQ6). Description: Radioligand competition binding with [125I]-1-DMe-NPFF. Details: expressed in transfected cells; HEK293-Glo20F cells (cAMP).
Another data set concerns the target NPFF2R (Homo sapiens, UniProt Q9Y5X5). The description is as above. Also on record: expressed in transfected cells; HEK293-Glo20F cells (cAMP).
The mark [6] stands for this setting: [3H]-PrRP-20, read-out: Ki ± SEM GPR10.
The mark [7] stands for this setting: [125I]-43RFa, read-out: Ki ± SEM GPR103.

T1 sequence (P41145 whole entry): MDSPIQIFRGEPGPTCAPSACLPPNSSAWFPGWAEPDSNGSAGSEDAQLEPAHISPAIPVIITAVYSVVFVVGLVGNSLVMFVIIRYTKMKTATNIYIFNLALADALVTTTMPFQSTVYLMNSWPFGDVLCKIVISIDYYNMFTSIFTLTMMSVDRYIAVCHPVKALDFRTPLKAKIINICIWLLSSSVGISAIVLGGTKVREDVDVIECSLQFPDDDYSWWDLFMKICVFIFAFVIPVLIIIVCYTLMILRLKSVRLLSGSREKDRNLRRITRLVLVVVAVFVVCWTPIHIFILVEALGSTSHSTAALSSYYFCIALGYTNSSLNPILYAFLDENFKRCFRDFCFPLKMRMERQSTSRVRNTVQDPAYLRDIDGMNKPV
T2 sequence (P41146 whole entry): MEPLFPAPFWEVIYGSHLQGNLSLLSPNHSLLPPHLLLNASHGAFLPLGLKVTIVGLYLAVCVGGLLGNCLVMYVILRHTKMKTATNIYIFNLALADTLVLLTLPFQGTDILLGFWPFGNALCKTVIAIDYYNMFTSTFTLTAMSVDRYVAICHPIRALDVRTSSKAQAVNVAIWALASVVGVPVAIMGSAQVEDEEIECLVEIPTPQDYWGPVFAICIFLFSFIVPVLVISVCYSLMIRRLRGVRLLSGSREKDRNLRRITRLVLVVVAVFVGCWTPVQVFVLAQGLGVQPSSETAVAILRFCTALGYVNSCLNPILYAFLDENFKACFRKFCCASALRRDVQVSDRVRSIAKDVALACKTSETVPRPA
Sequence of human NPFF1R (Q9GZQ6 whole entry): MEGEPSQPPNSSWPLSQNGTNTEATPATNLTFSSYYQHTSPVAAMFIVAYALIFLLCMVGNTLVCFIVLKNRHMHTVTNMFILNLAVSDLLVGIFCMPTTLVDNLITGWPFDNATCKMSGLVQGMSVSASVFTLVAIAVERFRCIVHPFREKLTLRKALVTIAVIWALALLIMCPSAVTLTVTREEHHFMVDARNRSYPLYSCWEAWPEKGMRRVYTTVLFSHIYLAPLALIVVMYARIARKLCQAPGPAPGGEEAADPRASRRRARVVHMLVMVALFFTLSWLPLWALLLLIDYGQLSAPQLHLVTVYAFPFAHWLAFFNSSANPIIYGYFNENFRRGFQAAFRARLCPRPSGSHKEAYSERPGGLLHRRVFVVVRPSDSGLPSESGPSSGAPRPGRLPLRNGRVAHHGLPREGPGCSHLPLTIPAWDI
Sequence of NPFF2R (Q9Y5X5 whole entry): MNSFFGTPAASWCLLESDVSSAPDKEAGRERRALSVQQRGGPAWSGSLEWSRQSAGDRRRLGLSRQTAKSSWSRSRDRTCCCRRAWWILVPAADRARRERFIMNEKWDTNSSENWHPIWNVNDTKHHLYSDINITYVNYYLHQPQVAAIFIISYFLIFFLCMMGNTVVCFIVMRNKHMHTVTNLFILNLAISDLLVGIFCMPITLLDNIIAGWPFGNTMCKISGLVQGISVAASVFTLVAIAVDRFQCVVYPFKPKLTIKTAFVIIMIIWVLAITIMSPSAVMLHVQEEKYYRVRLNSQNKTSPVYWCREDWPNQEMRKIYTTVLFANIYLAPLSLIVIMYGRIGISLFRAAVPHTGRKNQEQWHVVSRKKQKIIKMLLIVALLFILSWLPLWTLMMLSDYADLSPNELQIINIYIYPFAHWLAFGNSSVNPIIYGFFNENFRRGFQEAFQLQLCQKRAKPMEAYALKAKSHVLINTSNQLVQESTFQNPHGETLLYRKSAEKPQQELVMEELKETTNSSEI

Regarding `Cc1cc(O)cc(C)c1C[C@H](N)C(=O)N[C@H](CCCNC(=N)N)C(=O)N[C@H]1Cc2ccccc2CN(CCC(=O)N[C@@H](CCCNC(=N)N)C(=O)N[C@@H](Cc2ccccc2)C(N)=O)C1=O` [KGFF03, H-Dmt-D-Arg-Aba-β-Ala-Arg-Phe-NH2] (HELM PEPTIDE1{[Cc1cc(O)cc(C)c1C[C@H](N)C(=O)[*:2]].[dR].[O=C1[C@@H](N[*:1])Cc2ccccc2CN1CCC(=O)[*:2]].R.F.[am]}$$$$V2.0), the Ki is 0.108 ± 0.028 µM on human KOPr [1], over 10 µM on GPR10 and over 10 µM on GPR103. At human KOPr [2], the EC50 turned out to be 0.095 µM. The Emax on human KOPr [2] turned out to be 34 ± 11%; at human NOPr it was 15 ± 2%. On human NOPr, this molecule showed a Kb of 5.01 µM. The “potency in inducing antinociception compared to KGOP01” value with C57BL/6N mice [3] is “equipotent”. Also, in the data set on C57BL/6N mice [4], the “antinociceptive effect on day 1” value is reported as “full antinociception”.
As to `Cc1cc(O)cc(C)c1C[C@H](N)C(=O)N[C@H](CCCNC(=N)N)C(=O)N[C@H]1Cc2ccccc2CN(CCC(=O)N[C@@H](CCCN2CCC(Cc3ccccc3)CC2)C(=O)N[C@@H](Cc2ccccc2)C(N)=O)C1=O` [KGFF09, H-Dmt-D-Arg-Aba-β-Ala-Bpa-Phe-NH2], the Emax on human KOPr [2] worked out at 15 ± 1%. Moreover, on human NOPr, the half-maximal effective concentration (EC50) is over 10 µM and the Emax was determined as 7 ± 3%. Further, the Kb at human NOPr (read-out: pA2, antagonist activity at the NOPr (converted)) is 1.15 µM. Besides, the Ki on GPR10 (setting [6]) is over 10 µM. Besides, the Ki on GPR103 (setting [7]) is 1.2 µM. Further, in the data set on C57BL/6N mice [3], the “potency in inducing antinociception compared to KGOP01” value is recorded as 4.5 fold less potent. Besides, in the data set with C57BL/6N mice [4], the “basal thermal nociceptive threshold (development of hyperalgesia)” value is listed as “absent” and the “antinociceptive effect on day 1” value is given as “full antinociception”. The “decrease in antinociception efficacy (AUC) on day 8 compared to day 1” value with C57BL/6N mice [4] (daily sc. d1-d8, KGOP01 1.8, KGFF03 1.2, KGFF09 7.4 μmol/kg/d) is reported as “less than 25%”. Also, the “global opiate withdrawal score, reduced to” value in the data set on C57BL/6N mice [5] was “circa 50%”.
As for `Cc1cc(O)cc(C)c1C[C@H](N)C(=O)N[C@H](CCCNC(=N)N)C(=O)N[C@H]1Cc2ccccc2CN(CCC(N)=O)C1=O` [KGOP01, reference compound], the Ki is 0.0373 ± 0.0096 µM on human KOPr [1]; over 10 µM at GPR10 (setting [6]); over 10 µM on GPR103 (setting [7]); 4.6 µM at human NPFF1R; 4.5 µM at NPFF2R. The molecule further had a maximal response (Emax) on human KOPr [2] of 18 ± 1%. The EC50 on human KOPr [2] (read-out: KOPr (cAMP) EC50) is over 10 µM. The “basal thermal nociceptive threshold (development of hyperalgesia)” value with C57BL/6N mice [4] was “significant and progressive decrease”. Further, the “antinociceptive effect on day 1” value in the data set on C57BL/6N mice [4] is reported as “full antinociception”.
